What was measured:
[1] = biological target: PD-L1 His protein / PD-1 Fc protein (Homo sapiens (Human), UniProt Q9NZQ7); test: HTRF Assay (PD-1/PD-L1 interaction); format: binding; conditions: PD-L1 His 6 nM, PD-1 Fc 6 nM
human PD-L1 = human PD-L1 (Homo sapiens (Human), UniProt Q9NZQ7); test: T cell activation luciferase reporter cell culture system (T Cell Activation Assay); format: cell-based; conditions: luciferase reporter assay; PD-L1 aAPC/CHO-K1 cells with PD-1 effector Jurkat T cells
Sequence of human PD-L1 (Q9NZQ7 19-290): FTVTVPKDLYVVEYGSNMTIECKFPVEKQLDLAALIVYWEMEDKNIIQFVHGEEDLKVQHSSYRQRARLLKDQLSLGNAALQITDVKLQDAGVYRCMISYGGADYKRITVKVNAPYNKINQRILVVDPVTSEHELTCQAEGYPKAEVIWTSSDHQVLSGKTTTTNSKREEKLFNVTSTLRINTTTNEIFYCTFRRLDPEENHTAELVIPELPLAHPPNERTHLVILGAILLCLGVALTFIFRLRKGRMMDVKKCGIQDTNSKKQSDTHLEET

Sequence of PD-L1 His protein / PD-1 Fc protein (Q9NZQ7 19-238): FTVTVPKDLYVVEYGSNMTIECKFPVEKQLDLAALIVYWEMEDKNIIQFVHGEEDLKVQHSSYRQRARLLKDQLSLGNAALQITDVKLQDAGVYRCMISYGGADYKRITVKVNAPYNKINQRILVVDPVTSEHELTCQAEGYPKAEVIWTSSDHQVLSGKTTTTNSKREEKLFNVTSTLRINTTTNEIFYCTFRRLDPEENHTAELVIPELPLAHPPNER

Row | Compound | IC50 [1] | EC50 (human PD-L1)
1 | COC(=O)C1(NCc2cc(C(F)(F)F)c(N[C@H]3CCc4c(-c5nccc(-c6ccc(CNC[C@@H]7CCC(=O)N7)c(OC)n6)c5Cl)cccc43)nc2OC)CC1 [Compound 149, methyl 1-(((6-(((S)-4-(3′-chloro-6-methoxy-5-(((((S)-5-oxopyrrolidin-2-yl)methyl)amino)methyl)-[2,4′-bipyridin]-2′-yl)-2,3-dihydro-1H-inden-1-yl)amino)-2-methoxy-5-(trifluoromethyl)pyridin-3-yl)methyl)amino)cyclopropane-1-carboxy late] | 12.7 nM | ≥ 10000 nM
2 | COc1nc(-c2cccc(-c3ccnc(-c4ccc5nc([C@H]6N[C@@H]7CC[C@H]6C7)[nH]c5c4)c3Cl)c2Cl)ccc1CNC[C@@H]1CCC(=O)N1 [Compound 152, (S)-5-((((6-(3-(2-(2-((1R,3S,4S)-2-azabicyclo[2.2.1]heptan-3-yl)-1H-benzo[d]imidazol-6-yl)-3-chloropyridin-4-yl)-2-chlorophenyl)-2-methoxypyridin-3-yl)methyl)amino)methyl)pyrrolidin-2-one] | 2.57 nM | ≥ 10000 nM
3 | COc1cc(CNC[C@@H]2CCC(=O)N2)cc(-c2nccc(-c3cccc(-c4ccc(CNC[C@@H]5CCC(=O)N5)c(OC)n4)c3Cl)c2Cl)c1 [Compound 153, (S)-5-((((6-(2-chloro-3-(3-chloro-2-(3-methoxy-5-(((((S)-5-oxopyrrolidin-2-yl)methyl)amino)methyl)phenyl)pyridin-4-yl)phenyl)-2-methoxypyridin-3-yl)methyl)amino)methyl)pyrrolidin-2-one] | 5.14 nM | 782 nM
4 | COc1cc(CNC2CCN(C(C)=O)CC2)cc(-c2nccc(-c3cccc(-c4ccc(CNC5CCN(C(C)=O)CC5)c(OC)n4)c3Cl)c2Cl)c1 [Compound 154, 1-(4-(((6-(3-(2-(3-(((1-acetylpiperidin-4-yl)amino)methyl)-5-methoxyphenyl)-3-chloropyridin-4-yl)-2-chlorophenyl)-2-methoxypyridin-3-yl)methyl)amino)piperidin-1-yl)ethan-1-one] | 8.73 nM | ≥ 10000 nM
5 | CNCc1cc(OC)cc(-c2nccc(-c3cccc(-c4ccc(CNC)c(OC)n4)c3Cl)c2Cl)c1 [Compound 155, 1-(6-(2-chloro-3-(3-chloro-2-(3-methoxy-5-((methylamino)methyl)phenyl)pyridin-4-yl)phenyl)-2-methoxypyridin-3-yl)-N-methylmethanamine] | 6.82 nM | ≥ 10000 nM
6 | COc1cc(CNCCO)cc(-c2nccc(-c3cccc(-c4ccc(CNCCO)c(OC)n4)c3Cl)c2Cl)c1 [Compound 156, 2-(((6-(2-chloro-3-(3-chloro-2-(3-(((2-hydroxyethyl)amino)methyl)-5-methoxyphenyl)pyridin-4-yl)phenyl)-2-methoxypyridin-3-yl)methyl)amino)ethan-1-ol] | 1.18 nM | ≥ 10000 nM
7 | COc1cc(CNC[C@H](C)O)cc(-c2nccc(-c3cccc(-c4ccc(CNC[C@H](C)O)c(OC)n4)c3Cl)c2Cl)c1 [Compound 157, (S)-1-(((6-(2-chloro-3-(3-chloro-2-(3-((((S)-2-hydroxypropyl)amino)methyl)-5-methoxyphenyl)pyridin-4-yl)phenyl)-2-methoxypyridin-3-yl)methyl)amino)propan-2-ol] | 2.45 nM | ≥ 10000 nM
8 | COc1nc(-c2cccc(-c3ccnc(-c4ccc5c6c(n(C)c5c4)CCN(CCO)C6)c3Cl)c2Cl)ccc1CNC[C@@H]1CCC(=O)N1 [Compound 158, (S)-5-((((6-(2-chloro-3-(3-chloro-2-(2-(2-hydroxyethyl)-5-methyl-2,3,4,5-tetrahydro-1H-pyrido[4,3-b]indol-7-yl)pyridine-4-yl)phenyl)-2-methoxypyridin-3-yl)methyl)amino)methyl)pyridine1330ne-2-one] | 0.64 nM | ≥ 10000 nM
9 | CNCc1ccc(-c2cccc(-c3ccnc(-c4ccc5c(c4)CNC5)c3Cl)c2Cl)nc1OC [Compound 159, 1-(6-(2-chloro-3-(3-chloro-2-(isoindolin-5-yl)pyridine-4-yl)phenyl)-2-methoxypyridin-3-yl)-N-methylmethanamine] | 1.34 nM | ≥ 10000 nM
10 | COc1nc(-c2cccc(-c3ccnc(-c4ccc5c(c4)CNC5)c3Cl)c2Cl)ccc1CNCCO [Compound 160, 2-(((6-(2-chloro-3-(3-chloro-2-(isoindolin-5-yl)pyridine-4-yl)phenyl)-2-methoxypyridin-3-yl)methyl)amino)ethan-1-ol] | 0.87 nM | 150 nM
11 | COc1nc(-c2cccc(-c3ccnc(-c4ccc5c(c4)CNC5)c3Cl)c2Cl)ccc1CNC[C@H](C)O [Compound 161, (S)-1-(((6-(2-chloro-3-(3-chloro-2-(isoindolin-5-yl)pyridine-4-yl)phenyl)-2-methoxypyridin-3-yl)methyl)amino)propan-2-ol] | 0.73 nM | 387 nM
12 | COc1nc(-c2cccc(-c3ccnc(-c4ccc5c(c4)CNC5)c3Cl)c2Cl)ccc1CNC1CCN(C(C)=O)CC1 [Compound 162, 1-(4-(((6-(2-chloro-3-(3-chloro-2-(isoindolin-5-yl)pyridine-4-yl)phenyl)-2-methoxypyridin-3-yl)methyl)amino)piperidin-1-yl)ethan-1-one] | 0.78 nM | 5160 nM
13 | COc1nc(-c2cccc(-c3ccnc(-c4ccc5c(c4)CNC5)c3Cl)c2Cl)ccc1CN(C)C1CCN(C(C)=O)CC1 [Compound 163, 1-(4-(((6-(2-chloro-3-(3-chloro-2-(isoindolin-5-yl)pyridine-4-yl)phenyl)-2-methoxypyridin-3-yl)methyl)(methyl)amino)piperidin-1-yl)ethan-1-one] | 3.29 nM | ≥ 10000 nM
14 | COc1nc(-c2ccnc(-c3cccc4c3CC[C@@H]4Nc3nc(OC)c(CNC4(C(=O)O)CC4)cc3C(F)(F)F)c2Cl)ccc1CNC[C@@H]1CCC(=O)N1 [Compound 164, 1-(((6-(((S)-4-(3′-chloro-6-methoxy-5-(((((S)-5-oxopyrrolidin-2-yl)methyl)amino)methyl)-[2,4′-bipyridin]-2′-yl)-2,3-dihydro-1H-inden-1-yl)amino)-2-methoxy-5-(trifluoromethyl)pyridine-3-yl)methyl)amino)cyclopropane-1-carboxylic acid] | 0.49 nM | 66.6 nM
15 | COc1nc(-c2ccnc(-c3cccc4c3CC[C@@H]4Oc3nc(OC)c(CNC[C@@H](C)O)cc3C(F)(F)F)c2Cl)ccc1CNC[C@@H]1CCC(=O)N1 [Compound 165, (S)-5-((((3′-chloro-2′-((S)-1-((5-((( ®-2-hydroxypropyl)amino)methyl)-6-methoxy-3-(trifluoromethyl)pyridine-2-yl)oxy)-2,3-dihydro-1H-inden-4-yl)-6-methoxy-[2,4′-bipyridin]-5-yl)methyl)amino)methyl)pyridine1332ne-2-one] | 0.35 nM | 4.15 nM
16 | COc1nc(-c2ccnc(-c3cccc4c3CC[C@@H]4Oc3nc(OC)c(CNC[C@@H]4CCC(=O)N4)cc3C(F)(F)F)c2Cl)ccc1CNC[C@@H]1CCC(=O)N1 [Compound 166, (S)-5-((((3′-chloro-6-methoxy-2′-((S)-1-((6-methoxy-5-(((((S)-5-oxopyrrolidin-2-yl)methyl)amino)methyl)-3-(trifluoromethyl)pyridine-2-yl)oxy)-2,3-dihydro-1H-inden-4-yl)-[2,4′-bipyridin]-5-yl)methyl)amino)methyl)pyridine1332ne-2-one] | 0.18 nM | 1.98 nM
17 | COc1nc(-c2cccc(-c3ccnc(-c4ccc5c(CNC6CCN(C(C)=O)CC6)nn(C)c5c4)c3Cl)c2Cl)ccc1CNC[C@@H]1CCC(=O)N1 [Compound 167, (S)-5-((((6-(3-(2-(3-(((1-acetylpiperidin-4-yl)amino)methyl)-1-methyl-1H-indazol-6-yl)-3-chloropyridin-4-yl)-2-chlorophenyl)-2-methoxypyridin-3-yl)methyl)amino)methyl)pyridine1332ne-2-one] | 1.47 nM | 18.4 nM
18 | COc1nc(-c2cccc(-c3ccnc(-c4ccc5c(CN(C)C6CCN(C(C)=O)CC6)nn(C)c5c4)c3Cl)c2Cl)ccc1CNC[C@@H]1CCC(=O)N1 [Compound 168, (S)-5-((((6-(3-(2-(3-(((1-acetylpiperidin-4-yl)(methyl)amino)methyl)-1-methyl-1H-indazol-6-yl)-3-chloropyridin-4-yl)-2-chlorophenyl)-2-methoxypyridin-3-yl)methyl)amino)methyl)pyridine1332ne-2-one] | 3.6 nM | 12.5 nM
19 | CNCc1ccc(-c2cccc(-c3ccnc(-c4cc(CNC[C@@H](O)CC(=O)O)cc(OC)c4)c3Cl)c2Cl)nc1OC [Compound 169, (S)-4-((3-(3-chloro-4-(2-chloro-3-(6-methoxy-5-((methylamino)methyl)pyridine-2-yl)phenyl)pyridine-2-yl)-5-methoxybenzyl)amino)-3-hydroxybutanoic acid] | 1.85 nM | 632 nM
20 | CNCc1ccc(-c2cccc(-c3ccnc(-c4cc(CNCCC(=O)O)cc(OC)c4)c3Cl)c2Cl)nc1OC [Compound 170, 3-((3-(3-chloro-4-(2-chloro-3-(6-methoxy-5-((methylamino)methyl)pyridine-2-yl)phenyl)pyridine-2-yl)-5-methoxybenzyl)amino)propanoic acid] | 0.73 nM | 415 nM
21 | CNCc1ccc(-c2cccc(-c3ccnc(-c4cc(CN5CC[C@H](C(=O)O)C5)cc(OC)c4)c3Cl)c2Cl)nc1OC [Compound 171, (S)-1-(3-(3-chloro-4-(2-chloro-3-(6-methoxy-5-((methylamino)methyl)pyridine-2-yl)phenyl)pyridine-2-yl)-5-methoxybenzyl)pyrrolidine-3-carboxylic acid] | 1.65 nM | 670 nM
22 | CNCc1ccc(-c2cccc(-c3ccnc(-c4cc(CN5CC(CC(=O)O)C5)cc(OC)c4)c3Cl)c2Cl)nc1OC [Compound 172, 2-(1-(3-(3-chloro-4-(2-chloro-3-(6-methoxy-5-((methylamino)methyl)pyridine-2-yl)phenyl)pyridine-2-yl)-5-methoxybenzyl)pyridine1333-3-yl)acetic acid] | 3.32 nM | ≥ 10000 nM

Source: patent US20240246964A1 (Arbutus Biopharma Corporation, priority 2021, published 2024)
